Entries after “also recorded” stand apart in the source; their conditions may differ. Where no end group is shown, it is not given here. Cy3 = cyanine3 fluorescent dye; Cy5 = cyanine5 fluorescent dye
Columns and labels:
[1] = in vivo
Description: In order to extend the circulating half-life of the promolecule, it is covalently linked to a molecule of polyethylene glycol (PEG) having a moleculer weight of 1,000 Daltons. The PEG-modified promolecule is administered to a subject and the circulating half-life is measured.

[2] = target: T1, matriptase (Homo sapiens, UniProt Q9Y5Y6); assay: Selective activation in MDA-MB-231 cells, trypan blue, matriptase; assay type: cell-based; conditions: exogenous addition of different proteases
T1 sequence (Q9Y5Y6 615-855 limits assumed): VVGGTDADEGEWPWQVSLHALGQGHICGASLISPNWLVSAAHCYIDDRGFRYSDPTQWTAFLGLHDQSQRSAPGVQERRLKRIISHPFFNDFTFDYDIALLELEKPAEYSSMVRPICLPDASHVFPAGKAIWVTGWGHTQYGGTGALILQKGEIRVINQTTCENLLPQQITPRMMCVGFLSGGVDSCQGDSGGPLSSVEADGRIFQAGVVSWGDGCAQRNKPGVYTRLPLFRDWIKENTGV
Description: (§1) To examine the interaction of the promolecule and its activated form with cell membranes rather than artificial membranes, the promolecules were incubated with cells of the breast cancer cell line MDA-MB-231 (approximately 100,000 cells in a volume of […]) for 1 hour at 37° C. in Dulbecco's modified Eagle medium containing 1% fetal bovine serum, and cell viability was assessed using Trypan blue dye exclusion.
(§2) Cy5 fluorescent dye was conjugated to this promolecule via an N-terminal thiol (module X^1a) to create a promolecule having the structure X^1a-A-X^2—Z, and its interaction with HT29 cells was analyzed using fluorescence microscopy. In this experiment, cells were grown to confluence on glass bottom microwell dishes and the peptide (10 uM) incubated with the cells for between one to three hours and then washed for staining with fluorescently-labeled wheat germ agglutinin. After such staining the cells were covered in typical cell culture media and allowed to grow overnight for another round of imaging.

[3] = Intrinsic tryptophan fluorescence with liposomes or detergent micelles; assay type: binding
From the text: Intrinsic fluorescence was used to characterize promolecules containing one or more tryptophan residues in portion A. As the spectral properties of tryptophan are dependent upon its local environment, this provides unequivocal definition of its partitioning into phospholipid membranes. In aqueous conditions, tryptophan typically emits light near 355 nm when excited with 285 nm light. In contrast, the emitted light is […] or lowered when the tryptophan of the peptide is present in an apolar environment, such as the interior of a phospholipid membrane, and produces a maximum emission wavelength typically in the range of 325 to 345 nm. Both the magnitude and wavelength of light emitted under this fluorescence assay are influenced by the properties of the peptide and the composition of the phospholipid membrane. […] A typical assay employed an 8 μM solution of promolecules and liposomes of defined size (100 nm in diameter, 0.5 mM) composed of phosphatidylserine or phosphatidylcholine or a combination thereof to test the influence of negatively charged or zwitterionic surfaces. […] Time-dependent measurement of the fluorescence emission spectra was used to characterize the activation of the promolecules by thrombin (2 nM) or by other proteases (10 nM or higher).

[4] = system: MDA-MB-231 cells; assay: Trypan blue dye exclusion, MDA-MB-231 cells; assay type: cell-based; conditions: 1 hour, 37° C.
Description: as §1

[5] = system: HT29 cells; assay: Fluorescence microscopy of HT29 cells; assay type: cell-based
Description: as §2

[6] = system: blood clots formed in vitro; assay: Blood clots formed on glass slides; design: species or system bovine; conditions: for accumulation on actively clotting platelets / localization to blood clots: clots on glass slides, fluorescence microscopy; for accumulation on red blood cells: without activation
Description: Whole bovine blood was mixed at a ratio of 5:1 with a 10 nM solution of promolecules bearing the fluorescent dye Cy5. The mixture was then added to 1 uL of activated coagulation factor Xa (10 nM) and calcium chloride (10 mM) to initiate clot formation on the surface of a conventional microscopy slide. The mixture was then stirred with the tip of a plastic pipette for four minutes until a clot was formed. The clot was then pulled gently across the slide with the goal of flattening out the clot for better imaging. A coverslip was then placed on top of the slide and held in place by dabbing the corners with adhesive. The slide was then imaged within a few hours using an epifluorescence microscope (Nikon Eclipse Ti-E) bearing the appropriate filters for detection of the Cy5 dye.

[7] = Förster resonance energy transfer (FRET) to fluorescent liposomes; assay type: binding; conditions: 100 nm liposomes, entirely PS
Description: Förster resonance energy transfer (FRET) relies upon the ability of light to be exchanged from one fluorescent moiety to another, which becomes possible only when the moieties are in close proximity to one another, typically less than about 30 Angstroms. Liposomes having similar composition to that used in the intrinsic fluorescence assays were prepared with 1% DiO, a lipid-soluble fluorescent compound whose fluorescence emission characteristics match the excitation wavelength of the promolecule when conjugated to […]. DiO-containing liposomes (1 μM) were mixed with Cy5 containing promolecules or activated peptide portions (20 nM), and the spectral characteristics of the mixture were determined. Cy3 was excited with 545 nm light, and the emission of Cy5 was measured over 650 to 700 nm. The activated peptide portions, but not the promolecules, enabled fluorescence energy transfer, which confirmed the observations made using intrinsic fluorescence.

[8] = target: thrombin (Homo sapiens, UniProt P00734); assay: Thrombin-mediated proteolysis by reverse phase HPLC; assay type: biochemical; conditions: digestion by thrombin, Michaelis-Menten
Description: Thrombin-mediated proteolysis of promolecules was performed by incubating the enzyme at concentrations ranging from 0.1 to 2 nM with a 20 to 100 μM solution of the promolecule at 37° C. for up to three or a full twenty-four hours to ensure completeness. The extent of proteolysis was assessed by reverse phase high-pressure liquid chromatography. Samples were run over a C18 column using an acetonitrile gradient of 20% to 80% over a period of 30 minutes. Complete hydrolysis was evident by the absence of the initial peak corresponding to the promolecule, and was further validated using mass spectrometry.

[9] = system: mouse pancreatic duct carcinoma cells; assay: DRAQ7 exclusion, mouse pancreatic duct adenocarcinoma cells; assay type: cell-based; conditions: prolonged incubation, high micromolar concentrations, FIGS. 10 and 11
Description: DRAQ7 is a far-red fluorescent DNA dye that stains the nuclei of dead and permeabilized cells. Unlike trypan blue, it can be combined with other commonly used fluorophores, such as Oregon Green 488 and Cy5. Healthy cells exclude the dye, and no increase in fluorescence is observed. […] When complexed with double stranded DNA, the dye has a maximum excitation wavelength of 643 nm and a maximum emission wavelength of 694 nm. Cells incubated with the promolecule or the activated peptide form of the promolecule in the presence or absence of thrombin (5 nM) were exposed to DRAQ7 (3 μM) for at least 10 minutes and then imaged using two different approaches. In the first approach, the cells were mouse pancreatic duct adenocarcinoma cells, the incubation buffer contained wheat germ agglutinin conjugated with Oregon Green 488, and the cells were visualized with a Nikon Eclipse Ti-E bearing the appropriate filters. In the second approach, mouse X3 fibroblast cells bearing a modified Histone 2A gene fused to green fluorescent protein (GFP) were imaged using an Acumen Ex3—a commercially available confocal microscopy instrument specifically designed for high throughput, content rich and highly multiplexed data applicable to a wide range of biological assays.

[10] = system: enteropeptidase or thrombin activity; assay: Fluorescence imaging in a subject, promolecule activated by either of two enzymes; assay type: in vivo; conditions: administered to a subject
Description: In order to activate this promolecule, either X^2a or X^2b must be cleaved, so that this promolecule is activated by either thrombin or enteropeptidase activity. The molecule is administered to a subject, and is cleaved in areas having enteropeptidase or thrombin activity, causing portion A to separate from portion Z and interact with membranes in the vicinity.

PEG-modified promolecule: SEQ ID NO: 52 covalently linked to polyethylene glycol of 1,000 Daltons (CFVQWFSKFLGKLLPRSFLLQDPNDQYEPFW; not fully specified (residue 1, N-terminus); printed as Cy5-CFVQWFSKFLGKLLPRSFLLQDPNDQYEPFW; also: PEG 1000 Da attached, site not given here)
circulating half-life versus non-PEG-modified form [1]: longer circulating half-life than the non-PEG-modified form

(Cy5)FVQWFSKFLGKLLKSRAEDEGLYDDD (Cy5-FVQWFSKFLGKLLKSRAEDEGLYDDD; not fully specified; printed as (Cy5)FVQWFSKFLGKLLKSRAEDEGLYDDD) [SEQ ID NO: 49, matriptase-cleavable promolecule; tested as A-X^2—Z and with Cy5 via N-terminal thiol]
activation by matriptase (diminished trypan blue dye exclusion) [2]: selectively activated by matriptase
maximum emission wavelength / spectral properties, intrinsic tryptophan fluorescence ([3]; in presence of PC or PS liposomes or detergent micelles compared to buffer alone (PBS)): undergo a limited change
interaction with phospholipid membranes, intrinsic fluorescence ([3]; promolecule A-X^2—Z before activation): moderate restricted interaction with phospholipid membranes
toxicity / cell death, trypan blue dye uptake [4]: Limited toxicity; also recorded: low toxicity; also recorded: did not
fluorescent signal on cell surface ([5]; Cy5-conjugated promolecule, after co-incubation): accumulated on the surface of the HT29 cells; also recorded: detectable on the surface of cells
internalization into cells ([5]; after washing and further incubation (24 hours)): internalized into the cells; also recorded: localized in punctate spheres inside the cells

(Cy3-K)ILGTILGLLKGLPRSFLLRNPNDKYEPFW (Cy3-KILGTILGLLKGLPRSFLLRNPNDKYEPFW; also: Cy3 conjugated to N-terminal Lys, attachment site not given here) [SEQ ID NO: 48, thrombin-cleavable promolecule with protonectin as portion A, Cy3 on N-terminal lysine]
accumulation on actively clotting platelets / localization to blood clots [6]: intense accumulation of the active form of the promolecule; also recorded: localization of membrane-interacting peptide-containing cleavage products in blood clots
accumulation on red blood cells [6]: did not accumulate on red blood cells
FRET to DiO liposomes composed of phosphatidylserine (PS) [7]: do not associate closely enough with the PS liposomes to enable FRET
Km [8]: 0.2 µM

Cy5-CFVQWFSKFLGKLLPRSFLLQDPNDQYEPFW [SEQ ID NO: 52]
accumulation on actively clotting platelets / localization to blood clots [6]: intense accumulation of the activated peptide form of the promolecule; also recorded: localization of the membrane-interacting peptide-containing cleavage product to blood clots
accumulation on red blood cells [6]: did not accumulate on red blood cells

FVQWFSKFLGKLLPRSFLLQDPNDQYEPFW [SEQ ID NO: 47]
peptide-to-cell ratio at which cells did not exclude trypan blue or DRAQ7 (no longer viable) [9]: greater than 10^9 to one

(Cy5)CFFWLSKIFPRDDDDKDD (Cy5-CFFWLSKIFPRDDDDKDD) [SEQ ID NO: 53]
detection of Cy5 dye by fluorescence microscopy [10]: the Cy5 dye is detected in areas having enteropeptidase or thrombin activity
